PubChem BioAssay AID248 (DTP/NCI, 2004)
Where “and” joins values, the source holds several entries; their conditions need not be identical. Equal values may be shown once. Toxic doses and inconclusive results are not listed. No stated cut-off is given here; in the data, active means T/C of 150% or more; inactive means T/C below 125%.

Tested on: L1210 leukemia ip in BDF1 mice, survival T/C
Assay: NCI In Vivo Anticancer Drug Screen. Data for tumor model L1210 Leukemia (intraperitoneal) in B6D2F1 (BDF1) mice
Details: endpoint: mean survival time, higher = longer survival
How it was run: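 Read-out is survival time, reported as the treated-group measurement over the vehicle-control measurement.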

Measured: T/C

CN(C)c1ccc(Nc2c3ccccc3nc3ccccc23)cc1
inactive: dose: 3.13 mg/kg/injection, schedule: Q03HX040 (ip), vehicle: saline 106 % of control | dose: 3.75 mg/kg/injection, schedule: Q01DX Z (ip), vehicle: saline 107 % of control | dose: 3.75 mg/kg/injection, schedule: Q01DX Z (oral), vehicle: olive oil, sesame oil, peanut oil 116 % of control | dose: 5.0 mg/kg/injection, schedule: Q01DX005 (ip), vehicle: saline 107 % of control | dose: 5.0 mg/kg/injection, schedule: Q01DX009 (ip), vehicle: saline 107 % of control | dose: 5.0 mg/kg/injection, schedule: Q01DX009 (sc), vehicle: saline 101 % of control | dose: 6.12 mg/kg/injection, schedule: Q03HX008 (ip), vehicle: saline 107 % of control | dose: 6.25 mg/kg/injection, schedule: Q03HX008 (ip), vehicle: saline 104 % of control | dose: 6.25 mg/kg/injection, schedule: Q03HX016 (ip), vehicle: saline 103 % of control | dose: 7.0 mg/kg/injection, schedule: Q01DX Z (sc), vehicle: steriod suspending solution 104 % of control | dose: 7.5 mg/kg/injection, schedule: Q01DX Z (ip), vehicle: saline 110 % of control | dose: 10.0 mg/kg/injection, schedule: Q01DX005 (ip), vehicle: saline 108 % of control | dose: 10.0 mg/kg/injection, schedule: Q01DX009 (ip), vehicle: saline 117 % of control | dose: 10.0 mg/kg/injection, schedule: Q01DX009 (oral), vehicle: saline 118 % of control | dose: 10.0 mg/kg/injection, schedule: Q01DX009 (sc), vehicle: saline 102 % of control | dose: 10.0 mg/kg/injection, schedule: Q01DX Z (sc), vehicle: steriod suspending solution 115 % of control | dose: 12.5 mg/kg/injection, schedule: Q01DX Z (im), vehicle: saline 108 % of control | dose: 12.5 mg/kg/injection, schedule: Q04DX003 (ip), vehicle: saline 104 % of control | dose: 12.5 mg/kg/injection, schedule: Q06HX004 (ip), vehicle: saline 115 % of control | dose: 12.5 mg/kg/injection, schedule: Q#A X Z (oral), vehicle: saline 112 % of control | dose: 15.0 mg/kg/injection, schedule: Q01DX Z (oral), vehicle: olive oil, sesame oil, peanut oil 115 % of control | dose: 15.0 mg/kg/injection, schedule: Q01DX Z (sc), vehicle: steriod suspending solution 107 % of control | dose: 16.0 mg/kg/injection, schedule: Q01DX Z (ip), vehicle: carboxymethylcellulose (CMC) 112 % of control | dose: 17.5 mg/kg/injection, schedule: Q#A X Z (ip), vehicle: saline 116 % of control | dose: 19.0 mg/kg/injection, schedule: Q03DX006 (oral), vehicle: saline 112 % of control | dose: 20.0 mg/kg/injection, schedule: Q01DX009 (oral), vehicle: saline 101 % of control | dose: 20.0 mg/kg/injection, schedule: Q01DX009 (sc), vehicle: saline 100 % of control | dose: 22.5 mg/kg/injection, schedule: Q01DX009 (ip), vehicle: saline 120 % of control | dose: 23.0 mg/kg/injection, schedule: Q01DX Z (sc), vehicle: steriod suspending solution 115 % of control and 119 % of control | dose: 24.0 mg/kg/injection, schedule: Q01DX Z (ip), vehicle: carboxymethylcellulose (CMC) 120 % of control | dose: 24.0 mg/kg/injection, schedule: Q01DX Z (ip), vehicle: saline 111 % of control | dose: 25.0 mg/kg/injection, schedule: Q01DX001 (oral), vehicle: saline 96 % of control | dose: 25.0 mg/kg/injection, schedule: Q01DX001 (sc), vehicle: saline 96 % of control | dose: 25.0 mg/kg/injection, schedule: Q01DX005 (ip), vehicle: Klucel (hydroxypropylcellulose) (HPC) 112 % of control | dose: 25.0 mg/kg/injection, schedule: Q01DX005 (ip), vehicle: other 108 % of control and 114 % of control | dose: 25.0 mg/kg/injection, schedule: Q01DX009 (ip), vehicle: saline 116 % of control | dose: 25.0 mg/kg/injection, schedule: Q01DX Z (im), vehicle: saline 108 % of control | dose: 25.0 mg/kg/injection, schedule: Q01DX Z (oral), vehicle: saline 120 % of control | dose: 27.0 mg/kg/injection, schedule: Q01DX Z (oral), vehicle: saline 115 % of control | dose: 30.0 mg/kg/injection, schedule: Q01DX Z (ip), vehicle: olive oil, sesame oil, peanut oil 116 % of control | dose: 30.0 mg/kg/injection, schedule: Q01DX Z (sc), vehicle: olive oil, sesame oil, peanut oil 114 % of control | dose: 30.0 mg/kg/injection, schedule: Q01DX Z (sc), vehicle: saline 114 % of control | dose: 35.0 mg/kg/injection, schedule: Q01DX Z (ip), vehicle: carboxymethylcellulose (CMC) 118 % of control | dose: 35.0 mg/kg/injection, schedule: Q01DX Z (ip), vehicle: saline 101 % of control and 111 % of control | dose: 35.0 mg/kg/injection, schedule: Q01DX Z (sc), vehicle: steriod suspending solution 113 % of control | dose: 37.0 mg/kg/injection, schedule: Q03DX006 (oral), vehicle: saline 118 % of control | dose: 40.0 mg/kg/injection, schedule: Q01DX009 (sc), vehicle: saline 105 % of control | dose: 50.0 mg/kg/injection, schedule: Q01DX001 (oral), vehicle: saline 105 % of control | dose: 50.0 mg/kg/injection, schedule: Q01DX001 (sc), vehicle: saline 97 % of control | dose: 50.0 mg/kg/injection, schedule: Q01DX005 (ip), vehicle: other 112 % of control | dose: 50.0 mg/kg/injection, schedule: Q01DX Z (im), vehicle: saline 116 % of control | dose: 50.0 mg/kg/injection, schedule: Q01DX Z (oral), vehicle: saline 117 % of control | dose: 50.0 mg/kg/injection, schedule: Q04DX003 (ip), vehicle: Klucel (hydroxypropylcellulose) (HPC) 111 % of control | dose: 50.0 mg/kg/injection, schedule: Q04DX003 (ip), vehicle: other 108 % of control and 119 % of control | dose: 50.0 mg/kg/injection, schedule: Q#A X Z (oral), vehicle: saline 118 % of control | dose: 53.0 mg/kg/injection, schedule: Q01DX Z (sc), vehicle: saline 113 % of control | dose: 53.0 mg/kg/injection, schedule: Q01DX Z (sc), vehicle: steriod suspending solution 115 % of control | dose: 53.3 mg/kg/injection, schedule: Q01DX Z (ip), vehicle: carboxymethylcellulose (CMC) 115 % of control | dose: 53.3 mg/kg/injection, schedule: Q01DX Z (ip), vehicle: methylcellulose (MC) 111 % of control | dose: 60.0 mg/kg/injection, schedule: Q01DX Z (oral), vehicle: olive oil, sesame oil, peanut oil 120 % of control | dose: 60.0 mg/kg/injection, schedule: Q01DX Z (sc), vehicle: olive oil, sesame oil, peanut oil 117 % of control | dose: 80.0 mg/kg/injection, schedule: Q01DX Z (ip), vehicle: methylcellulose (MC) 95 % of control | dose: 80.0 mg/kg/injection, schedule: Q01DX Z (sc), vehicle: saline 107 % of control | dose: 90.0 mg/kg/injection, schedule: Q01DX009 (ip), vehicle: saline 119 % of control | dose: 100.0 mg/kg/injection, schedule: Q01DX001 (oral), vehicle: saline 112 % of control | dose: 100.0 mg/kg/injection, schedule: Q01DX001 (sc), vehicle: saline 108 % of control | dose: 100.0 mg/kg/injection, schedule: Q01DX005 (ip), vehicle: other 100 % of control | dose: 100.0 mg/kg/injection, schedule: Q04DX003 (ip), vehicle: other 112 % of control | dose: 105.0 mg/kg/injection, schedule: Q01DX Z (ip), vehicle: saline 114 % of control | dose: 120.0 mg/kg/injection, schedule: Q01DX Z (oral), vehicle: olive oil, sesame oil, peanut oil 111 % of control | dose: 120.0 mg/kg/injection, schedule: Q01DX Z (sc), vehicle: saline 120 % of control | dose: 125.0 mg/kg/injection, schedule: Q01DX001 (ip), vehicle: Klucel (hydroxypropylcellulose) (HPC) 115 % of control | dose: 125.0 mg/kg/injection, schedule: Q01DX001 (ip), vehicle: saline 111 % of control | dose: 135.0 mg/kg/injection, schedule: Q#A X Z (ip), vehicle: saline 97 % of control | dose: 175.0 mg/kg/injection, schedule: Q01DX001 (oral), vehicle: saline 108 % of control and 121 % of control | dose: 175.0 mg/kg/injection, schedule: Q07DX003 (oral), vehicle: saline 117 % of control | dose: 180.0 mg/kg/injection, schedule: Q01DX Z (ip), vehicle: carboxymethylcellulose (CMC) 96 % of control and 108 % of control and 110 % of control | dose: 180.0 mg/kg/injection, schedule: Q01DX Z (sc), vehicle: saline 97 % of control | dose: 200.0 mg/kg/injection, schedule: Q01DX001 (oral), vehicle: saline 107 % of control | dose: 200.0 mg/kg/injection, schedule: Q01DX001 (sc), vehicle: saline 103 % of control | dose: 245.0 mg/kg/injection, schedule: Q01DX Z (ip), vehicle: saline 110 % of control | dose: 400.0 mg/kg/injection, schedule: Q01DX Z (im), vehicle: saline 93 % of control | dose: 405.0 mg/kg/injection, schedule: Q01DX Z (ip), vehicle: saline 100 % of control and 113 % of control | dose: 480.0 mg/kg/injection, schedule: Q01DX Z (sc), vehicle: saline 109 % of control | dose: 540.0 mg/kg/injection, schedule: Q01DX Z (ip), vehicle: saline 119 % of control | dose: 600.0 mg/kg/injection, schedule: Q03DX006 (oral), vehicle: saline 101 % of control | dose: 608.0 mg/kg/injection, schedule: Q01DX Z (ip), vehicle: saline 114 % of control | dose: 700.0 mg/kg/injection, schedule: Q01DX001 (oral), vehicle: saline 115 % of control | dose: 912.0 mg/kg/injection, schedule: Q01DX Z (ip), vehicle: saline 115 % of control | dose: 1000.0 mg/kg/injection, schedule: Q01DX001 (ip), vehicle: Klucel (hydroxypropylcellulose) (HPC) 109 % of control | dose: 1260.0 mg/kg/injection, schedule: Q01DX Z (ip), vehicle: saline 119 % of control | dose: 1400.0 mg/kg/injection, schedule: Q01DX001 (oral), vehicle: saline 109 % of control
